In US11166940B2, “Treatment of cardiac disorders by blocking SK4 potassium channel” (Ramot at Tel-Aviv University Ltd., priority 2016, dated 2021):
Values joined by “and” are separate entries in the source; they are usually repeats but may differ in a detail not shown here. Equal values may be shown once.

Tests used:
SAN cells = experiment: Spontaneous APs / pacing rate of isolated SAN cells from WT mice (patch clamp); format: cell-based, mouse; details: 2 μM clotrimazole, current clamp; reversible during washout
Procedure: WT and CASQ2 D307H KI mice were anesthetized with isofluorane and sacrificed by cervical dislocation. The heart was rapidly removed and transferred into Tyrode solution containing heparin. […] The area was cleaned, cut into small strips and washed into a Low Calcium Solution, containing (in mM): 140 NaCl, 5.4 KCl, 0.5 MgCl2, 1.2 KH2PO4, 5 HEPES-NaOH, 50 taurine, 5.5 glucose (pH 6.9). The osmolarity was adjusted if needed to 315 mOsm.
The same solution, supplemented with 1 mg/ml albumin, 200 μM CaCl2, collagenase Type I (Worthington) or liberase TH (Roche), protease (Sigma) and elastase (Sigma) was used for enzymatic digestion as previously described [See, Mesirca, P., et al. Nat Commun 5, 4664 (2014)]. In this step, the tissue was gently resuspended with a polished Pasteur pipette in this solution for 9-13 minutes at 37° C. SAN samples were then washed three times in a modified “Kraftbrühe” solution, containing (in mM): 70 glutamic acid, 80 KOH, 20 KCl, 10 γ-Hydroxybutyric acid sodium salt, 10 KH2PO4, 10 HEPES-KOH, 10 taurine, 1 mg/ml albumin, 0.1 EGTA-KOH (pH 7.2). The same solution was used to re-suspend the single cells with a pipet by vigorous up and down, between 3 to 5 minutes at 37° C. Cells were then gradually exposed to increasing concentrations of calcium, following a “Ca^2+ readaptation” protocol [Mesirca et al., 2014, supra]. Experiments were performed the same day at 33° C.
In all experiments, the coverslips were perfused at 33° C. with an external solution containing (in mM): 140 NaCl, 4 KCl, 11 Glucose, 1.2 MgCl2, 1.8 CaCl2, 5.5 HEPES titrated to pH 7.4 with NaOH and adjusted at 320 mOsm with sucrose.
The spontaneous automaticity of isolated SAN cells was recorded under perforated-patch conditions by adding 30 μM β-escin49 to the intracellular solution containing (in mM): 130 KCl, 10 NaCl, 10 HEPES, 0.2 EGTA-KOH, 2 MgATP, 6.6 Phosphocreatine, 0.05 cAMP and 1 μM free Ca^2+ (pH 7.2). To record SK4 K+ current, a voltage ramp protocol was applied. SAN and hiPS-CMs were held at −40 mV and −20 mV, respectively to substantially inactivate voltage-gated Na^+ and Ca^2+ currents. Cells were stepped from −90 mV to +60 mV for 150 ms. Then, a cocktail (solution 1) containing (in mM) 0.3 cadmium, 0.025 ZD-7288 and 0.01 E-4031 was applied extracellularly to inhibit residual L-type and T-type voltage-gated Ca2+ currents, If and the IKr currents, respectively. […] For voltage-clamp recording of SAN cells, the intracellular solution was the same to that described above for recording spontaneous automaticity.
The spontaneous electric activity of the cell was recorded in the current clamp configuration of the patch clamp technique before (black trace) and during (violet trace) exposure to 2 μM clotrimazole.
FIG. 5E (Left) presents representative traces of spontaneous APs recorded in single SAN cell from WT mice.

WT mice = experiment: In vivo telemetric ECG recording in WT (normal) mice; design: species or system mouse; details: 20 mg/kg IP
Excerpt: (§1) Telemetric ambulatory long-term ECG recordings, analogous to Holter monitoring in humans, were obtained with implantable transmitters. […] An implantable 3.5 grams wireless radiofrequency transmitter (DSI MM USA, device weight 3.8 grams) was aseptically inserted into a subcutaneous tissue pocket in the back as described in Katz, G., et al. Heart Rhythm 7, 1676-1682 (2010) and Kurtzwald-Josefson, E., et al. Heart Rhythm 11, 1471-1479 (2014)]. Animals were allowed to recover after surgery for at least 24 hours before any experiments. Baseline electrocardiograms (ECG) were obtained 15 minutes after IP injection of the appropriate vehicle (peanut oil or peanut oil supplemented with ethanol 1%). […] Telemetered ECG tracings were obtained in conscious mice at rest for one minute and during peak exercise (i.e. the first minute of recovery). In the treadmill exercise, mice were forced to exercise on a rodent treadmill; gradually increasing the speed up to a maximum of 15 m/minute. Ventricular tachycardia (VT) was defined as four or more consecutive ventricular beats. If this phenotype was consecutively observed for more than 15 seconds, it was defined as “sustained” ventricular tachycardia (SVT). Shorter VTs were characterized as “non-sustained” (NSVT). All other ventricular arrhythmias, such as premature beats, ventricular bigeminy, couplets and triplets were all defined as ventricular premature contractions (VPCs).
(§2) For this, a heart telemetry device was implanted in norma mice for continuous ECG recording at rest and during treadmill exercise. For each session, continuous ECG recording was performed with the same animals receiving first intraperitoneal (IP) injection of vehicle (peanut oil) and then 20 mg/kg clotrimazole.
as §2, with “A” for “For this, a”, “WT, CASQ2-D307H KI and CASQ2 KO” for “norma”, “the SK4 channel blocker.” for “20 mg/kg clotrimazole.”

CASQ2-D307H KI mice = experiment: In vivo telemetric ECG recording in CASQ2-D307H KI mice; design: species or system mouse; details: 20 mg/kg IP; for number of mice, most severe ECG form: NSVT / number of mice, most severe ECG form: Normal (sinusal rhythm) / number of mice, most severe ECG form: SVT / number of mice, most severe ECG form: VPC: n=5 Clotrimazole, n=12 TRAM-34
Excerpt: as §1
as §2, with “A” for “For this, a”, “WT, CASQ2-D307H KI and CASQ2 KO” for “norma”, “the SK4 channel blocker.” for “20 mg/kg clotrimazole.”
(§3) The types of arrhythmic features were classified following their seriousness: sinusal rhythm (normal), ventricular premature contractions (VPC), non-sustained ventricular tachycardia (NSVT) and sustained ventricular tachycardia (SVT). For each mouse was considered the most severe form of arrhythmia recorded under ECG.

CASQ2 KO mice = experiment: In vivo telemetric ECG recording in CASQ2 KO mice; design: species or system mouse; details: 20 mg/kg IP; for number of mice, most severe ECG form: NSVT / number of mice, most severe ECG form: Normal (sinusal rhythm) / number of mice, most severe ECG form: SVT / number of mice, most severe ECG form: VPC: n=6
Excerpt: as §1
as §2, with “A” for “For this, a”, “WT, CASQ2-D307H KI and CASQ2 KO” for “norma”, “the SK4 channel blocker.” for “20 mg/kg clotrimazole.”
as §3

SK4 current = target: T1, SK4 current (Homo sapiens, UniProt O15554); details: 2 μM clotrimazole added to solution 1; voltage ramp −90 to +40 mV; cited from earlier work
T1 construct: electrophysiological characterization of the SK4 current in a single cardiac hESC-CM; endogenous in cells; host or cells: hESC-CMs (human embryonic stem cell-derived cardiomyocytes)
T1 sequence (O15554 whole entry): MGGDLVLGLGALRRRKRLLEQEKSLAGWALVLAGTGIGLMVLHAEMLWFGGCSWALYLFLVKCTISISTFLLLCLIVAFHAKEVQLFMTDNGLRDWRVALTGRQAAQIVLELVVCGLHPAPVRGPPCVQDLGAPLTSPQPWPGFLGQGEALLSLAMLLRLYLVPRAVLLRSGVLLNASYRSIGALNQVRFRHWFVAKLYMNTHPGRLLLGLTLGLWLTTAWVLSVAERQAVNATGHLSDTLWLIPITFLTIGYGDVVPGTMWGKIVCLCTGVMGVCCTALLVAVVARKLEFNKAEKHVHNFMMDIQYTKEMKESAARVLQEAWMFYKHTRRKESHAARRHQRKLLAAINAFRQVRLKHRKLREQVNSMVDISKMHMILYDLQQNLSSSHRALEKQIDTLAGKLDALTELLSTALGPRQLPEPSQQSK

hESC-CMs = details: 2 μM clotrimazole, current clamp; cited from earlier work

## Clc1ccccc1C(c1ccccc1)(c1ccccc1)n1ccnc1 [Clotrimazole]
SAN cells
  firing rate: strongly decreases the firing rate of the cells
WT mice; WT mice at rest
  prolongation of the PR interval: 27%
WT mice; WT mice at rest, vs vehicle in same animal
  reduction of resting heart rate: 16.1±6.1% and 16±6%
WT mice; normal mice at rest, n=10 (vehicle 29.4±0.9)
  PR interval: 37.0 ± 3.5 ms
WT mice; normal mice at rest, n=10 (vehicle 718±16)
  resting heart rate: 604±43 bpm
WT mice; normal mice during treadmill exercise, n=10 (vehicle 724±18)
  sinus rate (heart rate): 605±42 bpm
WT mice; normal mice following treadmill exercise, n=10 (vehicle 29.27±0.94), not significant
  PR interval: 37.44 ± 4.03 ms
CASQ2-D307H KI mice; KI mice at rest
  mice converted to normal sinus rhythm: 3 out of 5
CASQ2-D307H KI mice; KI mice, basal conditions and during treadmill exercise
  heart rate and PR interval: bradycardia and PR prolongation were noticed
CASQ2-D307H KI mice; KI at rest
  number of mice, most severe ECG form: NSVT: 0
  number of mice, most severe ECG form: Normal (sinusal rhythm): 3
  number of mice, most severe ECG form: SVT: 0
  number of mice, most severe ECG form: VPC: 2
CASQ2-D307H KI mice; KI during Exercise
  number of mice, most severe ECG form: NSVT: 2
  number of mice, most severe ECG form: Normal (sinusal rhythm): 0
  number of mice, most severe ECG form: SVT: 1
  number of mice, most severe ECG form: VPC: 2
CASQ2 KO mice; KO mice, basal conditions and during treadmill exercise
  heart rate and PR interval: bradycardia and PR prolongation were noticed
CASQ2 KO mice; KO at rest
  number of mice, most severe ECG form: NSVT: 0
  number of mice, most severe ECG form: Normal (sinusal rhythm): 4
  number of mice, most severe ECG form: SVT: 0
  number of mice, most severe ECG form: VPC: 2
CASQ2 KO mice; KO during exercise
  number of mice, most severe ECG form: NSVT: 3
  number of mice, most severe ECG form: Normal (sinusal rhythm): 0
  number of mice, most severe ECG form: SVT: 1
  number of mice, most severe ECG form: VPC: 2
SK4 current
  clotrimazole-sensitive/SK4 current (linear voltage trace): decreased the linear voltage trace in both sides
hESC-CMs
  duration of the action potentials (APD50): did not significantly affect
  firing rate: decreased the firing rate of the cells
  membrane potential (MDP) / pacing: depolarized the membrane of the cell (MDP) until a pacing arrest
